Read-outs that look alike come from different tables or passages of the source.
Experiments:
[1] = Osmolality of the solution; format: physicochemical; conditions: 37°C, 300 mgI/ml
[2] = Viscosity of the solution; format: physicochemical; conditions: 37°C, 300 mgI/ml
[3] = Solubility in water; format: physicochemical
[4] = Plasma kinetics after intravenous administration in rats; format: in vivo; conditions: rat, 200 mgI/kg; for half-life: iv
Protocol: The apparent volume of distribution is 123.5 ml/kg showing that the product is distributed in plasma and the extracellular spaces.

[5] = Elimination through urine and bile after administration; format: in vivo, rats; conditions: after 7 hours from the administration
Protocol: Elimination occurs mainly through urinary pathway and in less extent through the bile. After 7 hours from the administration, 76.7% of the administered dose was found in the urine and 3.5% in the bile.

[6] = system: mice; test: Acute toxicity, intravenous administration in mice; format: in vivo; conditions: 14 days of observation
[7] = system: rats; test: Acute toxicity, intracisternal administration in rats; format: in vivo; conditions: 7 days of observation

SMILES	Osmolality [1] [mosm/kg H₂O]	Viscosity [2] [mPa·s]	Solubility in H₂O ([3]; at 20°C) [% w/v]	other results
CC(=O)N(CC(O)CN(C(C)=O)c1c(I)c(C(=O)NCC(O)CO)c(I)c(C(=O)NCC(O)CO)c1I)c1c(I)c(C(=O)NCC(O)CO)c(I)c(C(=O)NCC(O)CO)c1I (stereo not shown) [C, 1,3-bis-[N-[3,5-bis-(2,3-dihydroxy-propyl)aminocarbonyl-2,4,6-triiodo-phenyl]-acetylamino]-2-hydroxy-propane, reference compound]	196	8.7	–	–
C[C@H](O)C(=O)Nc1c(I)c(C(=O)NCC(O)CNC(=O)c2c(I)c(NC(=O)[C@H](C)O)c(I)c(C(=O)NC(CO)C(O)CO)c2I)c(I)c(C(=O)NC(CO)C(O)CO)c1I (stereo partly drawn) [Example 4, 1,3-bis-[3-(L-2-hydroxy-propionyl)amino-5-(1,3,4-tri-hydroxy-2-butyl)aminocarbonyl-2,4,6-triiodo-benzoyl-amino]-2-hydroxy-propane]	–	–	100	–
C[C@H](O)C(=O)Nc1c(I)c(C(=O)NCC(O)CNC(=O)c2c(I)c(NC(=O)CO)c(I)c(C(=O)NC(CO)C(O)CO)c2I)c(I)c(C(=O)NC(CO)CO)c1I (stereo partly drawn) [Example 11, 1-[3-hydroxyacetylamino-5-(1,3,4-trihydroxy-2-butyl)aminocarbonyl-2,4,6-triiodo-benzoyl-amino]-3-[3-(L-2-hydroxy-propionyl)amino-5-(1,3-dihydroxy-isopropyl)aminocarbonyl-2,4,6-triiodo-benzoyl-amino]-2-hydroxypropane]	–	–	–	Solubility in H₂O ([3]; at 25°C): > 100 % w/v
C[C@H](O)C(=O)Nc1c(I)c(C(=O)NCC(O)CO)c(I)c(C(=O)N(C)CC(O)CN(C)C(=O)c2c(I)c(NC(=O)[C@H](C)O)c(I)c(C(=O)NCC(O)CO)c2I)c1I (stereo partly drawn) [Example 8, 1,3-bis-[N-methyl-N-[3-(L-2-hydroxy-propionyl)amino-5-(2,3-dihydroxy-propyl)aminocarbonyl-2,4,6-triiodobenzoyl]amino]-2-hydroxy-propane]	–	–	> 100	–
O=C(CO)Nc1c(I)c(C(=O)NCC(O)CNC(=O)c2c(I)c(NC(=O)CO)c(I)c(C(=O)NC(CO)C(O)CO)c2I)c(I)c(C(=O)NC(CO)C(O)CO)c1I (stereo not shown) [Example 15, 1,3-bis-[3-hydroxyacetylamino-5-(1,3,4-trihydroxy-2-butyl)aminocarbonyl-2,4,6-triiodo-benzoyl-amino]-2-hydroxy-propane]	–	–	100	–
C[C@H](O)C(=O)Nc1c(I)c(C(=O)NCC(O)CNC(=O)c2c(I)c(NC(=O)[C@H](C)O)c(I)c(C(=O)NC(CO)CO)c2I)c(I)c(C(=O)NC(CO)CO)c1I [Example 1, 1,3-bis-[3-(L-2-hydroxy-propionyl)amino-5-(1,3-dihydroxy-isopropyl)-aminocarbonyl-2,4,6-triiodo-benzoyl-amino]-2-hydroxy-propane]	141	8.5	–	Vd ([4]; read-out: apparent volume of distribution): 0.123 L/kg; clearance ([4]; read-out: total clearance): 7.9 mL/min/kg; half-life ([4]; read-out: half life for the distribution phase): 2.9 min; half-life ([4]; read-out: half life for the elimination phase): 22.9 min; administered dose found in the bile [5]: 3.5%; administered dose found in the urine [5]: 76.7%; LD₅₀ C.L. 95% [6]: > 15000 mgI/kg; LD₅₀ C.L. 95% [7]: >900 mgI/kg
CN(CC(O)CN(C)C(=O)c1c(I)c(NC(=O)CO)c(I)c(C(=O)NC(CO)C(O)CO)c1I)C(=O)c1c(I)c(NC(=O)CO)c(I)c(C(=O)NC(CO)C(O)CO)c1I (stereo not shown) [Example 16, 1,3-bis-[N-methyl-N-[3-hydroxyacetylamino-5-(1,3,4-trihydroxy-2-butyl)aminocarbonyl-2,4,6-triiodo-benzoyl]-amino]-2-hydroxy-propane]	–	–	100	–
C[C@H](O)C(=O)Nc1c(I)c(C(=O)NCC(O)CNC(=O)c2c(I)c(NC(=O)CO)c(I)c(C(=O)NCC(O)CO)c2I)c(I)c(C(=O)NC(CO)CO)c1I (stereo partly drawn) [Example 10, 1-[3-(L-2-hydroxy-propionyl)amino-5-(1,3-dihydroxyisopropyl)aminocarbonyl-2,4,6-triiodo-benzoyl-amino]-3-[3-hydroxyacetylamino-5-(2,3-dihydroxy-propyl)aminocarbonyl-2,4,6-triiodo-benzoyl-amino]-2-hydroxy-propane]	131	8.6	–	–

— EP0557345B1, “1,3-BIS- 3-(MONO- OR POLY-HYDROXY)ACYLAMINO-5-(MONO- OR POLY-HYDROXYALKYL)AMINOCARBONYL-2,4,6-TRIIODO-BENZOYL-AMINO]-HYDROXY- OR HYDROXYALKYL-PROPANES, THEIR METHODS OF PREPARATION AND X-RAY CONTRAST MEDIA CONTAINING THEM” (DIBRA S.p.A., priority 1990, dated 1992)
